{"source": "paper PMC6429585", "about": "“Synthesis, Microtubule-Binding Affinity, and Antiproliferative Activity of New Epothilone Analogs and of an EGFR-Targeted Epothilone-Peptide Conjugate” (International Journal of Molecular Sciences, 2019)", "key": {"human cancer cells": {"system": "human cancer cells", "parameters": "method as in PMID 7757983, PMID 8999970", "details": "cited from earlier work"}, "A431 cells": {"system": "A431 cells", "assay": "cells", "format": "cell-based, human", "details": "72 h incubation, mean of three experiments ± SD; read-out: IC50 A431", "experimental": "(§1) Experiments were performed in RPMI (SW480 cells) or DMEM (HEK293 and A431 cells) medium (Gibco) supplemented with 2 mM glutamine, 10% fetal bovine serum, 100 IU/mL penicillin, 100 µg/mL streptomycin, and 1 µg/mL amphotericin B (all from Sigma) at 37 °C and 5% CO2. Cells were seeded into 96-well microtiter plates and compounds were added in DMSO in serial dilutions in triplicate. The final DMSO (dimethylsulfoxide) concentration was 0.1%. After 72 h, a WST-1 reagent was added and the absorption was measured at 450 nm with a plate reader after 30 min to 4 h. The percentage of viable cells was calculated based on vehicle-treated cells and was plotted in GraphPadPrism. At least three independent experiments were performed.\n(§2) A431 cells were obtained from CLS. The other cell lines were available in the laboratory. WST-1 was purchased from Roche."}, "HEK293 cells": {"system": "HEK293 cells", "assay": "cells", "format": "cell-based, human", "details": "72 h incubation, mean of three experiments ± SD; read-out: IC50 HEK293", "experimental": "as §1, §2"}, "SW480 cells": {"system": "SW480 cells", "assay": "cells", "format": "cell-based, human", "details": "72 h incubation, mean of three experiments ± SD; read-out: IC50 SW480", "experimental": "as §1, §2"}, "[1]": {"assay": "Stability in complete cell culture medium (RP-HPLC)", "format": "in vitro ADME", "details": "bovine, complete cell culture medium (RPMI with 10% FBS); 8.6 μM solution in RPMI with 10% FBS, 3 days, 37 °C; read-out: degradation in cell culture medium", "experimental": "The stability of the epothilone-GE11 conjugate 4 in complete cell culture medium was evaluated under conditions resembling those encountered in the cytotoxicity assays. Thus, an 8.6 μM solution of 4 in RPMI with 10% FBS was incubated for 3 days at 37 °C and subsequently analyzed by RP-HPLC. Only minor degradation of 4 (<10%) was observed under these conditions (data not shown).\nSynthesis, Microtubule-Binding Affinity and Antiproliferative Activity of New Epothilone Analogs and of an EGFR-Targeted Epothilone-Peptide\nFabienne Zdenka Gaugaz, Andrea Chicca, Mariano Redondo, Isabel Barasoain, José Fernando Díaz, and Karl-Heinz Altmann*\nSI.1. EGFR Expression Quantification\nEGFR expression levels were determined by treating cells with 1 µg/ml Cetuximab or human IgG isotype antibody and staining with a secondary Alexa Fluor 647 goat anti-human IgG.[49] The fluorescence was quantified by FACS on a FACSCanto device with a FACSDiva software and later analyzed with FlowJo (Fig. S1). […]\nFigure S1: Relative quantification of EGF receptors by FACS. […]\nThe stability of 4 in cell culture medium was evaluated by analytical RP-HPLC. […] The mixture was centrifuged and 10 µL of the supernatant were analyzed by analytical HPLC: H2O with 0.1% TFA (A) / acetonitrile/H2O 8/2 with 0.05% TFA (B). […]"}, "[2]": {"assay": "Glutathione cleavage assay (reductive disulfide cleavage, RP-HPLC)", "format": "physicochemical", "details": "10 mM GSH", "experimental": "The reductive cleavage of conjugate 4 was analyzed under conditions mimicking those found in the endosome and the cytoplasm of cancer cells. Endosome-like conditions were assumed to be reproduced by a 10 mM solution of glutathione (GSH) in acetate and phosphate buffer pH 4.9; cytoplasm-like conditions entailed 10 mM GSH in phosphate buffer pH 7.4.\nFor cytoplasm-like conditions, 100 µL of a […] solution of conjugate 4 in degassed 100 mM phosphate buffer pH 7.4 were diluted with 400 µL of a degassed phosphate buffer and 500 µL of 20 mM glutathione in 100 mM phosphate buffer pH 7.4. Aliquots of 80 µL were removed at predefined time points, and the reaction was quenched with one volume of 10% metaphosphoric acid, giving a pH of 1 approximately. Fifty microliters of this solution were analyzed by analytical RP-HPLC. The same protocol was used for cleavage under endosome-like conditions, except that the glutathione solution was prepared in a 100 mM acetate buffer at pH 4.8, and the same buffer was also used to dilute the conjugate solution in a 100 mM phosphate buffer at pH 7.4. The final pH of the cleavage solution was 4.9.\nAnalytical RP-HPLC: H2O with 0.1% TFA (A)/acetonitrile/water 8/2 with 0.05% TFA (B). Linear gradient from 5% B to 80% B over 30 min. The percentage of remaining conjugate in the solutions was plotted against time (Figure 3). Analysis of the cleavage solutions by LC/MS provided information of the fractions of the various components in the redox mixture.\nFigure 3 Kinetics of glutathione (GSH)-mediated reduction of epothilone-peptide conjugate 4 (173 µM 4, 10 mM GSH, pH 4.9 (endosome-like conditions), triangles, or pH 7.4 (cytoplasm-like conditions), circles). Conjugate 4 was added to the respective GSH solutions as a solution in phosphate buffer pH 7.4 at room temperature, to reach a total concentration of 173 μM. Samples were quenched at different time points with 10% metaphosphoric acid and analyzed by RP-HPLC. […]"}}, "note": "Read-outs that look alike come from different tables or passages of the source."}
{"smiles": "C/C(=C\\c1csc(C)n1)[C@@H]1C[C@@H]2O[C@]2(C)CCC[C@H](C)[C@H](O)[C@@H](C)C(=O)C(C)(C)[C@@H](O)CC(=O)O1", "note": "[Epo B, Epothilone B]", "values": [{"measurement": "IC50 values for most cell lines", "setting": "human cancer cells", "result": "sub-nanomolar"}]}
{"smiles": "CC[C@H](C)[C@H](NC(=O)[C@@H](NC(=O)[C@H](CC(N)=O)NC(=O)[C@H](CCC(N)=O)NC(=O)[C@@H]1CCCN1C(=O)[C@@H](NC(=O)[C@H](Cc1ccc(O)cc1)NC(=O)CNC(=O)[C@H](Cc1ccc(O)cc1)NC(=O)[C@H](Cc1c[nH]c2ccccc12)NC(=O)[C@H](Cc1c[nH]cn1)NC(=O)[C@H](Cc1ccc(O)cc1)NC(=O)[C@@H](N)CSSCCn1c(C)nc2cc([C@@H]3C[C@@H]4C[C@H]4CCC[C@H](C)[C@H](O)[C@@H](C)C(=O)C(C)(C)CCC(=O)O3)ccc21)[C@@H](C)O)C(C)C)C(N)=O", "note": "[compound 4]", "values": [{"measurement": "IC50", "setting": "A431 cells", "result": "74.7 ± 6.65", "unit": "nM"}, {"measurement": "IC50", "setting": "HEK293 cells", "result": "31.1 ± 6.21", "unit": "nM"}, {"measurement": "IC50", "setting": "SW480 cells", "result": "181 ± 25.9", "unit": "nM"}, {"measurement": "metabolised at 72 h, 8.6 μM", "setting": "[1]", "result": "< 10", "unit": "%"}, {"measurement": "half-life at 173 µM", "setting": "[2]; acetate and phosphate buffer pH 4.9, read-out: half-life, endosome-like conditions", "result": 66, "unit": "s"}, {"measurement": "residual conjugate 1 min after addition, cytoplasm-like conditions", "setting": "[2]; phosphate buffer pH 7.4, 1 min", "result": "no residual conjugate was detectable"}, {"measurement": "half-life at 173 µM", "setting": "[2]; phosphate buffer pH 7.4, read-out: estimated half-life, cytoplasm-like conditions", "result": "~12", "unit": "s"}]}
